Test results as given in article PMC7665192, “A natriuretic peptide from Arabidopsis thaliana (AtPNP-A) can modulate catalase 2 activity” (Scientific Reports, 2020).
Positions of bridges follow the written chain, without caps; N, C: chain ends. Residues, ends and D or L forms follow the SMILES beside them. *: point of attachment. Biotin = O=C1N[C@H]2[C@H](CS[C@H]2CCCCC(=O)*)N1

What was measured:
[1] = system: CAT2 recombinant (rCAT2); assay: SPR, rCAT2 immobilized on NTA chip; type: binding, Arabidopsis thaliana; details: His-tagged rCAT2 immobilized at app. 4,500 RU, analytes at the same concentration, 20 °C
Method: N-terminally 6xHis-tagged AtPNP-A and CAT2 proteins were expressed in BL21 (DE3) One Shot E. coli cells (Life Technologies), purified by affinity chromatography with Ni–NTA beads (Qiagen) and HisTrap HP column (GE Healthcare Lifesciences) as described in[21]. The purity of preparations was verified on 12.5% SDS-PAGE, stained with Coomassie Brilliant Blue (Bio-Rad). Protein identities were confirmed in MS analysis, and protein concentration was determined according to the method of Bradford using BSA as a standard.
SPR experiments were performed at 20 °C on Biacore T100 instrument operated using Biacore T100 control software (version 2.0.2, GE Healthcare Lifesciences) using Series S CM5 or NTA sensor chips as described in[21]. […]
Figure 2 AtPNP-A directly interacts with Arabidopsis CAT2 and bovine liver CAT in vitro. […] The models were analyzed and visualized using UCSF Chimera (version 1.10.2; https://www.cgl.ucsf.edu/chimera/)[55]. […]

[2] = system: A. thaliana (Col-0) mesophyll cell protoplasts; assay: Mesophyll cell protoplast swelling (volume); type: cell-based, Arabidopsis thaliana; details: 100 nM peptide or 1 μg mL^−1 rAtPNP-A, 0.4 M mannitol, 20 min, room temperature, n = 50, P < 0.0001
Text: Peptides containing amino acid sequence of the active region of AtPNP-A and corresponding scrambled peptides, having the same amino acid composition but in a randomized order (Fig. 1a), with or without C-terminal biotin tag, were synthesized by GenScript (Piscataway, USA) at the purity level > 95% verified with HPLC and their biological activity was verified as described previously.
Figure 1 Biologically active peptide containing the active region of AtPNP-A protein binds to CAT2. (a) Domain organization of AtPNP-A and the amino acid sequences of C-terminally biotinylated peptides used in affinity chromatography-based experiments—a peptide containing the active site of AtPNP-A (indicated as pAtPNP-A) or the corresponding scrambled peptide (indicated as pScr). Cysteine residues forming a disulfide bond, characteristic to natriuretic peptide (NP)-like molecules, are underlined. SP, signal peptide. (b) Assaying biological activity of the AtPNP-A peptide (pAtPNP-A) and purified recombinant protein (rAtPNP-A). […] In each treatment, 50 randomly selected protoplasts with diameter > 20 µm were included in quantitative analysis (scale bar = 20 µm). Protoplast volume was measured and the data obtained from an exemplar experiment are plotted. […]

[3] = target: T1, bovine liver CAT (Bos taurus, UniProt P00432); assay: SPR kinetic analysis, bovine liver CAT immobilized on CM5 chip; type: binding
T1 construct: bovine liver CAT (C-40; Sigma); purchased Sigma C-40; host or cells: bovine liver (tissue-derived enzyme)
T1 sequence (P00432 2-527 limits assumed): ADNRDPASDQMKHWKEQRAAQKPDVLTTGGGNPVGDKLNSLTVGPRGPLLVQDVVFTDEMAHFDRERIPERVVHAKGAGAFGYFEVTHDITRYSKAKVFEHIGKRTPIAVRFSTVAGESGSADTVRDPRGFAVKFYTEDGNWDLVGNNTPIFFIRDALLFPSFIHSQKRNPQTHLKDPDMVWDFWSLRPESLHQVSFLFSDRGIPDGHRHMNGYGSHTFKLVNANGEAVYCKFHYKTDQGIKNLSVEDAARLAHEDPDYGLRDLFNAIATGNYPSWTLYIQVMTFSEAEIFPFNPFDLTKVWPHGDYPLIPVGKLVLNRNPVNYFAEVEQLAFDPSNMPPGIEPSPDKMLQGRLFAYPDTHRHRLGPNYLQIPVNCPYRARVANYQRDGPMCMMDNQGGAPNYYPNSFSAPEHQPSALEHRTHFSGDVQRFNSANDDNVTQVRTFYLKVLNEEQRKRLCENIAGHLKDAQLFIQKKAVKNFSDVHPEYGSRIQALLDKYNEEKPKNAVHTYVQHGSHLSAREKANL
Method: SPR experiments were performed at 20 °C on Biacore T100 instrument operated using Biacore T100 control software (version 2.0.2, GE Healthcare Lifesciences) using Series S CM5 or NTA sensor chips as described in[21]. Kinetic analyses were performed at the flow of 100 μL min^−1 with pAtPNP-A (at 3.78 μM and consecutive twofold dilutions; 11 injections included) employed as a ligand and bovine liver CAT (C-40; Sigma) used as an analyte and immobilized on the active surface of the Series S CM5 sensor chip with amine coupling kit, while the surface regeneration was done with solution of glycine, pH 2.0, and the final sensorgram was generated with Scrubber (BioLogic Software Pty Ltd).

[4] = system: bovine CAT; assay: Isothermal titration calorimetry (ITC); type: binding; details: 100 μM pAtPNP-A as titrant, PBS pH 7.4, 25 °C, 30 injections
Method: ITC experiments were undertaken using MicroCal iTC200 (Malvern Panalytical) calorimeter. The titrations were conducted at 25 °C in PBS buffer at pH 7.4, with 100 μM pAtPNP-A used as a titrant. Total number of injections was set at 30, reference power was 11 μcal s^−1, initial delay was 60 s, and stirring speed was 750 rpm.

[5] = system: receptor perceiving AtPNP-A; details: cited from earlier work
Text: Similarly, identification of novel receptors targeted by an increasing number of peptidic plant hormones discovered in the last few decades[8],[9] is anticipated. One of those, the plant natriuretic peptides (PNPs), are a group of systemically mobile signals[10] that have a role in the maintenance of salt and water balance[11],[12]. An A. thaliana PNP, termed AtPNP-A (At2g18660; Q9ZV52), has been implicated in several physiological processes ranging from the regulation of stomatal aperture, osmoticum-dependent volume changes[13],[14] and modulation of developmental stage- and tissue-specif ...

Chi2, average squared residual ([3]; SPR kinetic fit, 20 °C) [RU2]	U-value, uniqueness value for kinetic rate constants ([3]; SPR kinetic fit, 20 °C)	Specificity of binding to bovine CAT ([3]; SPR, both ligand-analyte configurations, amine coupling)	Compound	SPR binding response to rCAT2 [1]	Protoplast swelling response (volume) [2]	ITC: conformational changes on binding [4]	Generation of cGMP by receptor upon AtPNP-A binding [5]
10.4	2	points to a specific interaction	CC(C)C[C@@H]1NC(=O)[C@H](CC(N)=O)NC(=O)[C@H](CC(N)=O)NC(=O)[C@H](CCCCN)NC(=O)[C@H](C(C)C)NC(=O)CNC(=O)[C@H](C(C)C)NC(=O)[C@H](C(C)C)NC(=O)[C@H](CC(C)C)NC(=O)[C@H]([C@@H](C)O)NC(=O)[C@H](CCC(=O)O)NC(=O)[C@H](CCCNC(=N)N)NC(=O)[C@H](CCC(N)=O)NC(=O)[C@H]([C@@H](C)O)NC(=O)CNC(=O)[C@H](Cc2ccc(O)cc2)NC(=O)[C@@H](NC(=O)[C@H](C)NC(=O)[C@H](CO)NC(=O)[C@H](CCCNC(=N)N)NC(=O)[C@@H](NC(=O)[C@H](Cc2ccc(O)cc2)NC(=O)[C@@H]2CCCN2)[C@@H](C)O)CSSC[C@@H](C(=O)NCC(=O)N[C@@H](CCCNC(=N)N)C(=O)N[C@@H](CCCNC(=N)N)C(=O)N[C@@H](Cc2ccc(O)cc2)C(=O)N[C@@H](CCCNC(=N)N)C(=O)N[C@H](C(=O)N[C@@H](CCCNC(=N)N)C(=O)N[C@@H](CCCCNC(=O)CCCC[C@@H]2SC[C@@H]3NC(=O)N[C@@H]32)C(=O)O)C(C)C)NC(=O)[C@H](C)NC(=O)[C@H](CCCNC(=N)N)NC(=O)CNC(=O)[C@H](CC(N)=O)NC(=O)[C@H](CCC(N)=O)NC(=O)[C@H](Cc2c[nH]c3ccccc23)NC1=O [pAtPNP-A] (H-PYTRSACYGTQRETLVVGVKNNLWQNGRACGRRYRVRK(Biotin)-OH; disulfide 7-30; N-terminus and C-terminus assumed)	significant accumulation of the biologically active analyte	significantly greater than the response elicited by the scrambled peptide (pScr)	significant conformational changes occurring as a result of pAtPNP-A binding to bovine CAT	
			AtPNP-A: An A. thaliana PNP, termed AtPNP-A (At2g18660; Q9ZV52)				catalyzes generation of cGMP upon binding of AtPNP-A
